In US20090196861A1, “Biocompatible Latent Emulsifiers” (BIOAVAILABILITY, INC., priority 2005, published 2009):

Key:
[1] = Water solubility at neutral pH; type: physicochemical; conditions: inferred from pKa
Excerpt: Rudnic et al. point out that short chain fatty acids are ionized at neutral pH, giving them a […] solubility, and imply that long chain fatty acids are not ionized and, thus, are even less soluble in water. […] Further, medium to long chain (C8 to C22) fatty acids have very limited water solubility; when mixing with water these fatty acids tend to separate from water completely just as oil or fat do.

[2] = measured to be as high as (Kanicky, 2002); cited from earlier work

water solubility [1]: essentially water insoluble
SMILES: CCCCCCCC/C=C\CCCCCCCC(=O)O [oleic acid]
pKa [2]: ≤ 9.85
